Data on 13 compounds can be found in patent publication US4317768A, “Dihydropyridine derivatives as stabilizers for vinyl chloride polymers” (priority 1977, dated 1982).

SMILES strings stand for the structures.

The nature of data set [1]: Static thermostability (GARDNER method), rigid PVC sheets, 185° C., 0.3 part stabilizer. The procedure: (§1) This study was carried out according to the GARDNER method, described in British Pat. No. 1,489,685.
(§2) The reference substance was 2-phenyl-indole, a well-known and widely used stabilizer.
(§3) The stabilizer (dihydropyridine or 2-phenyl-indole) and the other usual ingredients were mixed with powdered vinyl resins and the mixtures were calendered at a temperature of 160° C. to give rigid sheets.
(§4) The sheets were then heated in a thermostated oven (185° C. or 210° C.) for different intervals of time until incipient carbonization.
(§5) The coloration of the samples was compared to a standard scale of coloration, known as the GARDNER scale and was expressed in terms of the reference figures of the GARDNER scale.
(§6) This study was carried out with the following resin:
(§7) Polyvinyl chloride resin
(§8) SL 2016 is a solution of zinc-2-ethyl-hexanoate in a mixture of hydrocarbons boiling between 158° C. and 184° C.
A second trial was performed at a temperature of 185° C., with a resin containing 0.3 part of stabilizer, the samples being removed from the oven every 6 minutes over a period of 24 minutes, then every 3 minutes until the 42nd minute (or until carbonization).

Data set [2] can be described thus: Static thermostability (GARDNER method), rigid PVC sheets, 185° C., equimolecular quantities. The following applies: 1.55×10^-3 mol. The procedure: as §1, §2, §3, §4, §5, §6, §7, §8
Finally, a trail was performed at 185° C., with resins containing equimolecular quantities of the dihydropyridines or of 2-phenyl-indole, namely 1.55×10^-3 mol. In this case too, the samples were removed from the oven every 6 minutes over a period of 24 minutes and then every 3 minutes until the 42nd minute (or until carbonization).

The nature of data set [3]: Static thermostability (GARDNER method), rigid PVC sheets, 210° C., 0.3 part stabilizer. The following applies: for thermostabilizing power compared to 2-phenyl-indole, in words: 210° C. The procedure: as §1, §2, §3, §4, §5, §6, §7, §8
The first trial was carried out at 210° C. with a resin containing 0.3 part by weight of stabilizer, the sheets being removed from the oven every three minutes over a period of 21 minutes.

On to `CC1=C(C(=O)OCc2ccccc2C)CC(C(=O)OCc2ccccc2C)=C(C)N1` [Compound 6, 2,6-Dimethyl-3,5-di-(2'-carbomethyl-benzyloxy)-1,4-dihydropyridine], for which the “coloration, GARDNER scale” value in data set [1] (0 min) was determined as 1; in data set [1] (6 min) it was 1; in data set [1] (12 min), 2; in data set [1] (18 min) it was 9; in data set [1] (24 min) it was 11; in data set [1] (27 min), 11. Besides, the “coloration, GARDNER scale” value in data set [1] (30 min) was 13; in data set [1] (33 min) it was 14; in data set [1] (36 min), “Burnt”; in data set [2] (0 min), 1; in data set [2] (6 min) it was 1; in data set [2] (12 min), 2. Besides, the “coloration, GARDNER scale” value was 4 in data set [2] (18 min); 10 in data set [2] (24 min); 13 in data set [2] (27 min); “B” in data set [2] (30 min); 1 in data set [3] (0 min); 1 in data set [3] (3 min). Moreover, the “coloration, GARDNER scale” value is reported as 1.5 in data set [3] (6 min); 3 in data set [3] (9 min); 4 in data set [3] (12 min); 7 in data set [3] (15 min); “Burnt” in data set [3] (18 min).
As for `CC1=C(C(=O)OCCOCCCl)CC(C(=O)OCCOCCCl)=C(C)N1` [Compound 19, 2,6-Dimethyl-3,5-di-(2"-carbochloro-2'ethoxy-ethoxy)-1,4-dihydropyridine], the “coloration, GARDNER scale” value is recorded as 1 in data set [3] (0 min); 1 in data set [3] (3 min); 1 in data set [3] (6 min); 2 in data set [3] (9 min); 3 in data set [3] (12 min); 10 in data set [3] (15 min). Further, the figures for the “coloration, GARDNER scale” value in data set [3] (18 min) and in data set [3] (21 min) were 13 and “Burnt”, respectively.
For `CCCCCCC1C(C(=O)OC)=C(C)NC(C)=C1C(=O)OC` [Compound 8, 2,6-Dimethyl-3,5-dicarbomethoxy-4-hexyl-1,4-dihydropyridine], the “coloration, GARDNER scale” value turned out to be 1 in data set [3] (0 min); 2 in data set [3] (3 min); 3 in data set [3] (6 min); 6 in data set [3] (9 min); 8 in data set [3] (12 min); 10.5 in data set [3] (15 min). Besides, the results for the “coloration, GARDNER scale” value in data set [3] (18 min) and in data set [3] (21 min) were 11 and “Burnt”, respectively.
Consider `C=CCCC1=C(C(=O)OC)CC(C(=O)OC)=C(CCC=C)N1` [Compound 17, 2,6-Di-(3-butenyl)-3,5-dicarbomethoxy-1,4-dihydropyridine], for which the “coloration, GARDNER scale” value is listed as 1 in data set [3] (0 min); 1 in data set [3] (3 min); 2 in data set [3] (6 min); 8 in data set [3] (9 min); 9 in data set [3] (12 min); “Burnt” in data set [3] (15 min). For the same compound, in data set [3], the “thermostabilizing power compared to 2-phenyl-indole, in words” value was “greatly superior to 2-phenyl-indole”.
For the compound `COC(=O)C1=C(c2ccccc2)NC(c2ccccc2)=C(C(=O)OC)C1` [Compound 18, 2,6-Diphenyl-3,5-dicarbomethoxy-1,4-dihydropyridine], the “coloration, GARDNER scale” value amounted to 1 in data set [3] (0 min); 1 in data set [3] (3 min); 2 in data set [3] (6 min); 2 in data set [3] (9 min); 2 in data set [3] (12 min); 3 in data set [3] (15 min). Also, the figures for the “coloration, GARDNER scale” value in data set [3] (18 min) and in data set [3] (21 min) were 6 and “Burnt”, respectively.
With `CC1=C(C(=O)OCc2ccc(Cl)cc2)CC(C(=O)OCc2ccc(Cl)cc2)=C(C)N1` [Compound 7, 2,6-Dimethyl-3,5-di-(4'carbochloro-benzyloxy)-1,4-dihydropyridine], the “coloration, GARDNER scale” value in data set [3] (0 min) is 1; in data set [3] (3 min) it was 1; in data set [3] (6 min), 2; in data set [3] (9 min), 4; in data set [3] (12 min) it was 10.5; in data set [3] (15 min), 14. Also, the “coloration, GARDNER scale” value in data set [3] (18 min) was “Burnt”.
In the case of `COCCOC(=O)C1=C(C)NC(C)=C(C(=O)OCCOC)C1` [Compound 25], the “coloration, GARDNER scale” value in data set [3] (0 min) is given as 1; in data set [3] (3 min), 1; in data set [3] (6 min) it was 1; in data set [3] (9 min), 1; in data set [3] (12 min), 1; in data set [3] (15 min), 4. The “coloration, GARDNER scale” value was found to be 11 in data set [3] (18 min) and 17 in data set [3] (21 min).
Take `CC1=C(C(=O)OCC=Cc2ccccc2)CC(C(=O)OCC=Cc2ccccc2)=C(C)N1` [Compound 22, 2,6-Dimethyl-3,5-dicarbocinnamyloxy-1,4-dihydropyridine]: the “coloration, GARDNER scale” value in data set [3] (0 min) is recorded as 1; in data set [3] (3 min) it was 1; in data set [3] (6 min), 2; in data set [3] (9 min) it was 4; in data set [3] (12 min) it was 11; in data set [3] (15 min), “Burnt”.
As for `CC1=C(C(=O)OCCCl)CC(C(=O)OCCCl)=C(C)N1` [Compound 3, 2,6-Dimethyl-3,5-di-(2'-carbochloro-ethoxy)-1,4-dihydroyridine], the “coloration, GARDNER scale” value in data set [1] (0 min) was 1; in data set [1] (6 min), 1; in data set [1] (12 min), 5; in data set [1] (18 min), 8; in data set [1] (24 min), 10; in data set [1] (27 min) it was 10.5. Further, the “coloration, GARDNER scale” value in data set [1] (30 min) was 13; in data set [1] (33 min) it was 14; in data set [1] (36 min), 18; in data set [1] (39 min) it was 18; in data set [1] (42 min), “Burnt”; in data set [3] (0 min) it was 1. In addition, the “coloration, GARDNER scale” value is listed as 1 in data set [3] (3 min); 3 in data set [3] (6 min); 4 in data set [3] (9 min); 5 in data set [3] (12 min); 10.5 in data set [3] (15 min); “Burnt” in data set [3] (18 min). The “thermostabilizing power compared to 2-phenyl-indole, in words” value in data set [3] was “greatly superior to 2-phenyl-indole”.
As to `CCCCCCCCCCCCCC1=C(C(=O)OC)CC(C(=O)OC)=C(CCCCCCCCCCCCC)N1` [Compound 20, 2,6-Ditridecyl-3,5-dicarbomethoxy-1,4-dihydropyridine], the “coloration, GARDNER scale” value in data set [3] (0 min) is reported as 1; in data set [3] (3 min), 1; in data set [3] (6 min), 1.5; in data set [3] (9 min), 2; in data set [3] (12 min), 2; in data set [3] (15 min), 2.5. Also, the “coloration, GARDNER scale” value worked out at 4 in data set [3] (18 min) and 7 in data set [3] (21 min).
Turning to `CCOC(=O)C1=C(Cc2ccccc2)NC(Cc2ccccc2)=C(C(=O)OCC)C1` [Compound 16, 2,6-Dibenzyl-3,5-dicarbethoxy-1,4-dihydropyridine], the “coloration, GARDNER scale” value is 1 in data set [3] (0 min); 1 in data set [3] (3 min); 3 in data set [3] (6 min); 4 in data set [3] (9 min); 11 in data set [3] (12 min); 18 in data set [3] (15 min). In addition, in data set [3] (18 min), the “coloration, GARDNER scale” value is recorded as “Burnt”. For the same compound, the “thermostabilizing power compared to 2-phenyl-indole, in words” value in data set [3] was “greatly superior to 2-phenyl-indole”.
As for `COC(=O)C1=C(C)NC(C)=C(C(=O)OC)C1c1ccccc1` [Compound 23, 2,6-Dimethyl-3,5-dicarbomethoxy-4-phenyl-1,4-dihydropyridine], the “coloration, GARDNER scale” value in data set [3] (0 min) worked out at 1; in data set [3] (3 min) it was 2; in data set [3] (6 min) it was 3; in data set [3] (9 min) it was 13; in data set [3] (12 min) it was 14; in data set [3] (15 min) it was 15. In addition, in data set [3] (18 min), the “coloration, GARDNER scale” value is “Burnt”.
As to `CCOCCOC(=O)C1=C(C)NC(C)=C(C(=O)OCCOCC)C1` [Compound 26], the “coloration, GARDNER scale” value in data set [3] (0 min) was determined as 1; in data set [3] (3 min) it was 1; in data set [3] (6 min), 1; in data set [3] (9 min) it was 1; in data set [3] (12 min), 1.5; in data set [3] (15 min), 3. For the same compound, the “coloration, GARDNER scale” value is given as 11 in data set [3] (18 min) and “Burnt” in data set [3] (21 min).
